The text below walks through data of ChEMBL document CHEMBL1145007 (J Med Chem, 2003).

SMILES strings stand for the structures.

Usually Ki stands for a measure of affinity in units of concentration, obtained from inhibition or displacement.

The target of one test is Butyrylcholinesterase (Equus caballus, UniProt Q9N1N9).
Test [1] deals with T1, Acetylcholinesterase (Bos taurus, UniProt P23795).
T1 sequence (P23795 whole entry): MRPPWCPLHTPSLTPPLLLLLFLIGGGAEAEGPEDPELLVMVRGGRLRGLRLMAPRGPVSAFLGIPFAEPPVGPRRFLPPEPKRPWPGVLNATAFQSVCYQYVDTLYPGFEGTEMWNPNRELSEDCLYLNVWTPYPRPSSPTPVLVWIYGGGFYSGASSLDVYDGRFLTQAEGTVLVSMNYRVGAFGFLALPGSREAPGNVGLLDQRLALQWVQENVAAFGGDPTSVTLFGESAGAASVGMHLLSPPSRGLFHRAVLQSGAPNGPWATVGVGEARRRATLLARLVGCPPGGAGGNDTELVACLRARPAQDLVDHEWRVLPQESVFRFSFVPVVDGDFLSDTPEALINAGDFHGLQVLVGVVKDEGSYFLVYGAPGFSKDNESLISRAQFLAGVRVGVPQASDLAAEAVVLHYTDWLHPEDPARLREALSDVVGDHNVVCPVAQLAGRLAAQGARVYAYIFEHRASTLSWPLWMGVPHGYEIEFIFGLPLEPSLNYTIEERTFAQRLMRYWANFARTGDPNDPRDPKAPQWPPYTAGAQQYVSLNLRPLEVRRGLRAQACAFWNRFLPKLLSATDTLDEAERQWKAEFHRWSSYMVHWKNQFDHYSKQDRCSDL
Description: Inhibition of fetal Bovine serum AChE

In test [2] the target is Acetylcholinesterase (Homo sapiens, UniProt P22303). Briefly: Inhibitory activity against human AChE.
Acetylcholinesterase (Homo sapiens, UniProt P22303), sequence (P22303 whole entry): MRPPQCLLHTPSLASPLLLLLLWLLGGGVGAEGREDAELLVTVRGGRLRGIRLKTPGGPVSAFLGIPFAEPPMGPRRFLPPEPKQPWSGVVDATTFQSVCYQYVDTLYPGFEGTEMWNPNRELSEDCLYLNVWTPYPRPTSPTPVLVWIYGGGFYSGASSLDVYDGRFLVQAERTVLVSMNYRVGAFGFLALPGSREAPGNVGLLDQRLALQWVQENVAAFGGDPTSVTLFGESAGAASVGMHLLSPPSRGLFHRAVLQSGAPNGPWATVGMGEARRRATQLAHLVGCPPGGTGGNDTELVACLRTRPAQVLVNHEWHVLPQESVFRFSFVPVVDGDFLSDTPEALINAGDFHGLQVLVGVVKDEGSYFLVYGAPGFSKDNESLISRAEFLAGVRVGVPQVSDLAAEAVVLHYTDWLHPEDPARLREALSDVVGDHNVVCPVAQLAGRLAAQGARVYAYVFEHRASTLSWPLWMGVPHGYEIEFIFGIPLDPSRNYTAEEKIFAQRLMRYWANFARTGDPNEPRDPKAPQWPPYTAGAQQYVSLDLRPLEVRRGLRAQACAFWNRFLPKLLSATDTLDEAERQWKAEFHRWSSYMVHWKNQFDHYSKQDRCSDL

Butyrylcholinesterase, sequence (Q9N1N9 whole entry): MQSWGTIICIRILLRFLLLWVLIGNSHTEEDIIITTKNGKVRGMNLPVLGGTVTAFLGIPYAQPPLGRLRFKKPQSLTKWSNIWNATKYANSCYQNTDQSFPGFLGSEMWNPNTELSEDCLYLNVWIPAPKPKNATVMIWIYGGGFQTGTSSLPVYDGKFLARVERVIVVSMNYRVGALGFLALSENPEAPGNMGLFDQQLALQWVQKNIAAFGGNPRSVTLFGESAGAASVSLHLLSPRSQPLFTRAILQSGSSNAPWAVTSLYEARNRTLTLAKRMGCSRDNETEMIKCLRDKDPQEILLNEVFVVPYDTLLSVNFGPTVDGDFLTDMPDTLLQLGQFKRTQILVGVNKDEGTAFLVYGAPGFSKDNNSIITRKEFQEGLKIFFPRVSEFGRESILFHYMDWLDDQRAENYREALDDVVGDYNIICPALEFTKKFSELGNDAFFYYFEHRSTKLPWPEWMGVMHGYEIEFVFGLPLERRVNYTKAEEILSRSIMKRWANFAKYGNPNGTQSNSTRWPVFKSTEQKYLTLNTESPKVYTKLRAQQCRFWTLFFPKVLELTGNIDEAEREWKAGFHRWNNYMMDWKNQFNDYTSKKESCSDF
Description for Butyrylcholinesterase: Inhibition of Equine Butyrylcholinesterase

Regarding `c1ccc2c(NCCCCCCCCSc3c4c(nc5ccccc35)CCCC4)c3c(nc2c1)CCCC3`, the Ki at Butyrylcholinesterase amounted to 0.4 nM; on Acetylcholinesterase [1] it was 250 nM.
Take `c1ccc2c(NCCCCCSc3c4c(nc5ccccc35)CCCC4)c3c(nc2c1)CCCC3`: the Ki is 10 nM at Butyrylcholinesterase and 210 nM at Acetylcholinesterase [1].
For `CN(CCCNc1c2c(nc3ccccc13)CCCC2)CCCNc1c2c(nc3cc(Cl)cc(Cl)c13)CCCC2`, in that order: 11 nM and 3.7 nM.
For `CC(=O)N(CCCNc1c2c(nc3ccccc13)CCCC2)CCCNc1c2c(nc3ccccc13)CCCC2`, in that order: 2 nM and 1500 nM.
For `CN(CCCNc1c2c(nc3ccccc13)CCCC2)CCCNc1c2c(nc3ccccc13)CCCC2`, in that order: 6 nM and 0.06 nM.
At Acetylcholinesterase [2], `CCC1=CC2Cc3nc4cc(Cl)ccc4c(N)c3[C@@H](C1)C2` [HUPRINE X] came in with a Ki of 0.026 nM.
